Assay results: US20080009418A1, “Selective Inhibitors” (Alchemia LTD., priority 2004, published 2008)

Experiments:
Human μ-opioid (MOP) = target: T1, Human μ-opioid (MOP) (Homo sapiens, UniProt P35372); test: Radioligand binding, human μ-opioid (MOP) membranes, FlashPlate, [3H]-Naloxone; settings: compound at 10 μM; for A7: inhibition of radioligand binding: [3H]-Naloxone, FlashPlate
T1 construct: purchased Perkin Elmer Biosignal
Method in brief: (§1)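 Cloned human receptor membranes were coated onto FlashPlate wells and incubated with radioligand and compound (added from a 0.5 mM DMSO daughter plate) for 1 hour at room temperature in the dark. Scintillation counting gave percent inhibition, with DMSO defining total and reference ligand defining non-specific binding.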

Human δ-opioid (DOP) = target: T2, Human δ-opioid (DOP) (Homo sapiens, UniProt P41143); test: Radioligand binding, human δ-opioid (DOP) membranes, FlashPlate, [3H]-Bremazocine; settings: compound at 10 μM; for A1: inhibition of radioligand binding: [3H]-Bremazocine, FlashPlate
T2 construct: purchased Perkin Elmer Biosignal
Method in brief: as §1

Mouse urotensin (mUR2) = target: T3, Mouse urotensin (mUR2) (Mus musculus, UniProt Q8VIH9); test: Radioligand binding, mouse urotensin mUR2 membranes, FlashPlate, [125I]-Urotensin II; settings: compound at 10 μM; for A11: inhibition of radioligand binding: [125I]-Urotensin II, FlashPlate
T3 construct: purchased Perkin Elmer Biosignal
T3 sequence (Q8VIH9 1-385): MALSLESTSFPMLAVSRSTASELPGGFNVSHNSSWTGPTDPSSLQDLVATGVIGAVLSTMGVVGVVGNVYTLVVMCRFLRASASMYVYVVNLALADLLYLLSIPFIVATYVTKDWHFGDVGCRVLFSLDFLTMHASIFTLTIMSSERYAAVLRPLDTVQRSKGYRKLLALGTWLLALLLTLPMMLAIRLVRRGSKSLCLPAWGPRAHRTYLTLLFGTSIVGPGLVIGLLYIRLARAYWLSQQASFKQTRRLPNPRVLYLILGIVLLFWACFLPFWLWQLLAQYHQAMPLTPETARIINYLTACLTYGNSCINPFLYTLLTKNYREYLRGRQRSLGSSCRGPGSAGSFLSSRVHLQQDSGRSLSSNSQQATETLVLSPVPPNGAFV
Method in brief: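 Cloned mouse urotensin (mUR2) receptor membranes from Perkin Elmer Biosignal were immobilized in FlashPlate microplates using a proprietary coating. Each well got 19.5 μl buffer, then 0.5 μl of DMSO, reference ligand, or compound. Adding 5 μl of [125I]-Urotensin II, diluted to 5× final concentration in binding buffer, started binding. Plates were sealed with TopSeal-A and incubated 1 hour at room temperature in the dark. Wells were counted for 30 seconds each on a TopCount after a 60-second delay, and percentage inhibition was calculated.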

Human opioid (ORL1) = target: T4, Human opioid (ORL1) (Homo sapiens, UniProt P41146); test: Radioligand binding, human opioid ORL1 membranes, FlashPlate, [125I]-Nociceptin; settings: compound at 10 μM; for A10: inhibition of radioligand binding: [125I]-Nociceptin, FlashPlate
T4 construct: purchased Perkin Elmer Biosignal
Method in brief: as §1

Human melanocortin (MC5) = target: T5, Human melanocortin (MC5) (Homo sapiens, UniProt P33032); test: Radioligand binding, human melanocortin MC5 membranes, FlashPlate, [125I]-NDP-αMSH; settings: compound at 10 μM; for A5: inhibition of radioligand binding: [125I]-NDP-αMSH, FlashPlate
T5 construct: purchased Perkin Elmer Biosignal
Method in brief: as §1

Human Melanocortin (MC4) = target: T6, Human Melanocortin (MC4) (Homo sapiens, UniProt P32245); test: Radioligand binding, human melanocortin MC4 membranes, FlashPlate, [125I]-NDP-αMSH; settings: compound at 10 μM; for A4: inhibition of radioligand binding: [125I]-NDP-αMSH, FlashPlate
T6 construct: purchased Perkin Elmer Biosignal
Method in brief: as §1

Human κ-Opioid (KOP) = target: T7, Human κ-Opioid (KOP) (Homo sapiens, UniProt P41145); test: Radioligand binding, human κ-opioid (KOP) membranes, filtration, [3H]-Diprenorphine; settings: compound at 10 μM; for A2: inhibition of radioligand binding: [3H]-Diprenorphine, filtration
T7 construct: purchased Perkin Elmer Biosignal
Method in brief: (§2)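 Percent inhibition of radioligand binding measured on recombinant human membranes: NK1 with [125I]-Substance P, KOP with [3H]-Diprenorphine. Incubation 1 h at room temperature, then harvest onto 0.3% PEI-soaked filters, cold Tris-HCl pH 7.4 washes and scintillation counting; non-specific binding from reference ligand wells.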

[1] = target: T8, Human melanin-concentrating hormone (MCH1) (Homo sapiens, UniProt Q99705); test: Radioligand binding, human melanin-concentrating hormone MCH1 membranes, FlashPlate, [125I]-S36057; settings: compound at 10 μM; for A6: inhibition of radioligand binding: [125I]-S36057, FlashPlate
T8 construct: purchased Perkin Elmer Biosignal
Method in brief: as §1

Human Melanocortin (MC3) = target: T9, Human Melanocortin (MC3) (Homo sapiens, UniProt P41968); test: Radioligand binding, human melanocortin MC3 membranes, FlashPlate, [125I]-NDP-αMSH; settings: compound at 10 μM; for A3: inhibition of radioligand binding: [125I]-NDP-αMSH, FlashPlate
T9 construct: purchased Perkin Elmer Biosignal
Method in brief: as §1

[2] = target: T10, Human neuropeptide Y (NPY-Y1) (Homo sapiens, UniProt P25929); test: Radioligand binding, human neuropeptide Y NPY-Y1 membranes, FlashPlate, [125I]-PYY; settings: compound at 10 μM; for A9: inhibition of radioligand binding: [125I]-PYY, FlashPlate
T10 construct: purchased Perkin Elmer Biosignal
T10 sequence (P25929 1-384): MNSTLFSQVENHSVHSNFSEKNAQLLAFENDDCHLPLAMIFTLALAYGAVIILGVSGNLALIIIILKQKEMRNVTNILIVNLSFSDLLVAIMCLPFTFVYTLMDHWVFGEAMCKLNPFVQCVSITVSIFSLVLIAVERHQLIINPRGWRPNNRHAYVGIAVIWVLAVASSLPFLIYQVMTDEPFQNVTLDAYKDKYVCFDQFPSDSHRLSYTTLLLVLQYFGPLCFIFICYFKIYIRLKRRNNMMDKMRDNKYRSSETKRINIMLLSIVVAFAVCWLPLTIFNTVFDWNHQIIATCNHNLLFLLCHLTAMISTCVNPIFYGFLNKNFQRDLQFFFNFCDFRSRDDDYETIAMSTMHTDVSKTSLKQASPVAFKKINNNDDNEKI
Method in brief: as §1

Human neurokinin (NK1) = target: T11, Human neurokinin (NK1) (Homo sapiens, UniProt P25103); test: Radioligand binding, human neurokinin NK1 membranes, filtration, [125I]-Substance P; settings: compound at 10 μM; for A8: inhibition of radioligand binding: [125I]-Substance P, filtration
T11 construct: purchased Perkin Elmer Biosignal
Method in brief: as §2

T5 sequence (P33032 whole entry): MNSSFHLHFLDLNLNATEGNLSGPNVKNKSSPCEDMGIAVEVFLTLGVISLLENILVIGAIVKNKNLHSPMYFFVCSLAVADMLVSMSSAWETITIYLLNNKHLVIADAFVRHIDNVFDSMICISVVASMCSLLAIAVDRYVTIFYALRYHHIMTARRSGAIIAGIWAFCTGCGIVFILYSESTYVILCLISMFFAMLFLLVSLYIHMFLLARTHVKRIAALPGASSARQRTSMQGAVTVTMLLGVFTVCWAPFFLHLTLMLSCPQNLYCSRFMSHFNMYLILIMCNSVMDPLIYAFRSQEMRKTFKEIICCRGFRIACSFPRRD
T2 sequence (P41143 whole entry): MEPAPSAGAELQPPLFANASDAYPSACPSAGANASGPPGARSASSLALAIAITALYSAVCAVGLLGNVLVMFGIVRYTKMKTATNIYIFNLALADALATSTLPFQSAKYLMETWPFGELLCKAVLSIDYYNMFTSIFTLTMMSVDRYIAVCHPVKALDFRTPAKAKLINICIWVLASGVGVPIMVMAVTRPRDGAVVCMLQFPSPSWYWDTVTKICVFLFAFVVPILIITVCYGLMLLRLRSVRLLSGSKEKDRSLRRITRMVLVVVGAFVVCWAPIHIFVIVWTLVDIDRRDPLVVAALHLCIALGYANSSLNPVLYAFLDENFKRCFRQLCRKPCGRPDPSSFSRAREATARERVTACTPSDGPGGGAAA
T7 sequence (P41145 whole entry): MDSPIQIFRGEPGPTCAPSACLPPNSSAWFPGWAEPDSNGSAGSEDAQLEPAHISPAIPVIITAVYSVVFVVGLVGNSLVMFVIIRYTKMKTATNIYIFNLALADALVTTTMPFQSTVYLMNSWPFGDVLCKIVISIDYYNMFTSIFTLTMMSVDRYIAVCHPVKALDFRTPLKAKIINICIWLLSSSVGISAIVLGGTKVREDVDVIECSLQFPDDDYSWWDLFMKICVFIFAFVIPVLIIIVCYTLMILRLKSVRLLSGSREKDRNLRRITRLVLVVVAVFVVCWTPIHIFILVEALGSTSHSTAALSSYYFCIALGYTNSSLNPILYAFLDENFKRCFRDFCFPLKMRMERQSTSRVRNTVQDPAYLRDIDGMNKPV
T11 sequence (P25103 whole entry): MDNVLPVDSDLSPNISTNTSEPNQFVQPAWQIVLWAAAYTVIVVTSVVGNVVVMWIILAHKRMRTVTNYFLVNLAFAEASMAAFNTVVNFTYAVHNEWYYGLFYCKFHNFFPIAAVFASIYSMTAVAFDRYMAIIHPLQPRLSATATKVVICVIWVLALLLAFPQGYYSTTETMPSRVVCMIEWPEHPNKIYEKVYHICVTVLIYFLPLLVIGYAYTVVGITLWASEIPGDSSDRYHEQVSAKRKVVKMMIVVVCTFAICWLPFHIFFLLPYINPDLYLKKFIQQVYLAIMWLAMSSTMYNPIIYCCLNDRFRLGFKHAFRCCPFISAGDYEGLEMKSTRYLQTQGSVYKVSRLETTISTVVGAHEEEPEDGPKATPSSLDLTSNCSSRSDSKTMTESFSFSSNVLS
T6 sequence (P32245 whole entry): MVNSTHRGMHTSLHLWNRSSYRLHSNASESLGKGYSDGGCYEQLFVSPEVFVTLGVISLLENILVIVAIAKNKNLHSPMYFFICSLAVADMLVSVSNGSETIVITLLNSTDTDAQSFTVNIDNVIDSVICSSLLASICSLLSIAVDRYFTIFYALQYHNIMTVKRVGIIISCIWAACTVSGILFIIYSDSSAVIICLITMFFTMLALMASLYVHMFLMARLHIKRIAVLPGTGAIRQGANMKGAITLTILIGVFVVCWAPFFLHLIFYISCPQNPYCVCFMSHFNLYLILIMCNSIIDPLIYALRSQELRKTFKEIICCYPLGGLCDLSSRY
T4 sequence (P41146 whole entry): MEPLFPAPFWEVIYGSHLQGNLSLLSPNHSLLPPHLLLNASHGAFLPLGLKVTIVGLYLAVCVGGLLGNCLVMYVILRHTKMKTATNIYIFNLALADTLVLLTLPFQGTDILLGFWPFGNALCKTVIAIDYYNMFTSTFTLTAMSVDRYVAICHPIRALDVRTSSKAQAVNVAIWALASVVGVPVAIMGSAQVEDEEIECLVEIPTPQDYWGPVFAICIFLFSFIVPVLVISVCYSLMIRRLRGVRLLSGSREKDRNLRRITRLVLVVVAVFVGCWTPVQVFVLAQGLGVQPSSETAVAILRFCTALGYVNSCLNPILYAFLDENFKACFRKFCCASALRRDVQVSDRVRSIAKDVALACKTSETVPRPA
T9 sequence (P41968 whole entry): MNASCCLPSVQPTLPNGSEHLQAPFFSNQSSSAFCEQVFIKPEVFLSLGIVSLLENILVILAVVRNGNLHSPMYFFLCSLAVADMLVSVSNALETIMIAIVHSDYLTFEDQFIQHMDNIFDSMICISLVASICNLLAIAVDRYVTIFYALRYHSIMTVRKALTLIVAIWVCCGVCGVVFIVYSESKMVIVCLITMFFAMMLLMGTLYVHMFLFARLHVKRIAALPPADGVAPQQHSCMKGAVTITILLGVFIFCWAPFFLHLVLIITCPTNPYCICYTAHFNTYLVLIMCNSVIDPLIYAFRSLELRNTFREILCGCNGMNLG
T1 sequence (P35372 whole entry): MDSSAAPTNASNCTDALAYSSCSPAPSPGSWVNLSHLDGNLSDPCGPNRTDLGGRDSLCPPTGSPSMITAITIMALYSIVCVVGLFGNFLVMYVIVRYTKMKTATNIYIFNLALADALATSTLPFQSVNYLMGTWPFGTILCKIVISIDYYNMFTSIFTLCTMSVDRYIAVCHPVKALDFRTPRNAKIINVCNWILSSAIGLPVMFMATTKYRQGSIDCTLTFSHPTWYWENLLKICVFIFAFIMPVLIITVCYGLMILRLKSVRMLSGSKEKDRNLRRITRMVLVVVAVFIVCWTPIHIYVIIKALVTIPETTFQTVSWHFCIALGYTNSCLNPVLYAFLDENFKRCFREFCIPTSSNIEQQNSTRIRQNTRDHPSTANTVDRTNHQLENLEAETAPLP
T8 sequence (Q99705 whole entry): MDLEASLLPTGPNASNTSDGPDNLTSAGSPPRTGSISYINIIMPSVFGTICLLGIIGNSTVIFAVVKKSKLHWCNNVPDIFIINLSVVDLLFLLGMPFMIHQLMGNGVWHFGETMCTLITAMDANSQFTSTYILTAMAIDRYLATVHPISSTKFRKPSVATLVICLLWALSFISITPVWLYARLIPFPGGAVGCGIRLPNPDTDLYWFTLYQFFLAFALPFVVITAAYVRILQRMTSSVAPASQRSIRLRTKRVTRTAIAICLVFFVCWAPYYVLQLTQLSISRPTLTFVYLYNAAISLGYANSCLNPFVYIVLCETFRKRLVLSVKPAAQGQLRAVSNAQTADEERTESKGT

Structure (SMILES) | A7: inhibition of radioligand binding (Human μ-opioid (MOP)) | A1: inhibition of radioligand binding (Human δ-opioid (DOP)) | A11: inhibition of radioligand binding (Mouse urotensin (mUR2)) | A10: inhibition of radioligand binding (Human opioid (ORL1)) | A5: inhibition of radioligand binding (Human melanocortin (MC5)) | A4: inhibition of radioligand binding (Human Melanocortin (MC4)) | A2: inhibition of radioligand binding (Human κ-Opioid (KOP)) | A6: inhibition of radioligand binding [1] | A3: inhibition of radioligand binding (Human Melanocortin (MC3)) | A9: inhibition of radioligand binding [2] | A8: inhibition of radioligand binding (Human neurokinin (NK1)) | other results
COC[C@H]1OC(OCc2ccc3ccccc3c2)[C@H](NC(=O)CNC(=N)N)[C@@H](OCc2ccc(-c3ccccc3)cc2)[C@@H]1O (stereo partly drawn) [compound 15] | – | – | – | – | – | – | – | – | – | – | – | A7 radioligand binding inhibition (Human μ-opioid (MOP); human μ-opioid (MOP) membranes): + (“+” indicates greater than 50% inhibition at 10 μM); A1 radioligand binding inhibition (Human δ-opioid (DOP); human δ-opioid (DOP) membranes): − (“−” indicates less than 50% inhibition at 10 μM); A11 radioligand binding inhibition (Mouse urotensin (mUR2); mouse urotensin mUR2 membranes): − (“−” indicates less than 50% inhibition at 10 μM); A10 radioligand binding inhibition (Human opioid (ORL1); human ORL1 membranes): − (“−” indicates less than 50% inhibition at 10 μM); A5 radioligand binding inhibition (Human melanocortin (MC5); human melanocortin MC5 membranes): + (“+” indicates greater than 50% inhibition at 10 μM); A4 radioligand binding inhibition (Human Melanocortin (MC4); human melanocortin MC4 membranes): + (“+” indicates greater than 50% inhibition at 10 μM); A2 radioligand binding inhibition (Human κ-Opioid (KOP); human κ-opioid (KOP) membranes): − (“−” indicates less than 50% inhibition at 10 μM); A6 radioligand binding inhibition ([1]; human MCH1 membranes): + (“+” indicates greater than 50% inhibition at 10 μM); A3 radioligand binding inhibition (Human Melanocortin (MC3); human melanocortin MC3 membranes): − (“−” indicates less than 50% inhibition at 10 μM); A9 radioligand binding inhibition ([2]; human NPY-Y1 membranes): − (“−” indicates less than 50% inhibition at 10 μM); A8 radioligand binding inhibition (Human neurokinin (NK1); human neurokinin NK1 membranes): − (“−” indicates less than 50% inhibition at 10 μM)
COCC1OC(OCCc2ccccc2)C(NC(=O)CN)C(OCc2ccc(Cl)cc2)C1O (stereo not drawn) [compound 219] | − (“−” indicates less than 50% inhibition at 10 μM) | − (“−” indicates less than 50% inhibition at 10 μM) | − (“−” indicates less than 50% inhibition at 10 μM) | − (“−” indicates less than 50% inhibition at 10 μM) | + (“+” indicates greater than 50% inhibition at 10 μM) | − (“−” indicates less than 50% inhibition at 10 μM) | − (“−” indicates less than 50% inhibition at 10 μM) | − (“−” indicates less than 50% inhibition at 10 μM) | − (“−” indicates less than 50% inhibition at 10 μM) | − (“−” indicates less than 50% inhibition at 10 μM) | + (“+” indicates greater than 50% inhibition at 10 μM) | –
CSC1OC(COCc2ccc(Cl)cc2)C(O)C(OCc2ccc(Cl)cc2)C1NC(=O)CNC(=N)N (stereo not drawn) [compound 270] | − (“−” indicates less than 50% inhibition at 10 μM) | − (“−” indicates less than 50% inhibition at 10 μM) | − (“−” indicates less than 50% inhibition at 10 μM) | − (“−” indicates less than 50% inhibition at 10 μM) | + (“+” indicates greater than 50% inhibition at 10 μM) | + (“+” indicates greater than 50% inhibition at 10 μM) | − (“−” indicates less than 50% inhibition at 10 μM) | − (“−” indicates less than 50% inhibition at 10 μM) | + (“+” indicates greater than 50% inhibition at 10 μM) | − (“−” indicates less than 50% inhibition at 10 μM) | + (“+” indicates greater than 50% inhibition at 10 μM) | –
